ChEMBL document CHEMBL5291721, “A preclinical secondary pharmacology resource illuminates target-adverse drug reaction associations of marketed drugs” (Nat Commun, 2023)

Tests used:
[1] = biological target: Muscarinic acetylcholine receptor M3 (Homo sapiens, UniProt P20309)
[2] = biological target: 5-hydroxytryptamine receptor 2A (Homo sapiens, UniProt P28223); assay type: functional, cell-based
[3] = biological target: Gamma-aminobutyric acid receptor subunit alpha-1/alpha-2/beta-2/gamma-2 (Homo sapiens, UniProt P14867+P18507+P47869+P47870); assay type: protein-complex assay
Gamma-aminobutyric acid receptor subunit alpha-1/alpha-2/beta-2/gamma-2, sequence (P14867 whole entry): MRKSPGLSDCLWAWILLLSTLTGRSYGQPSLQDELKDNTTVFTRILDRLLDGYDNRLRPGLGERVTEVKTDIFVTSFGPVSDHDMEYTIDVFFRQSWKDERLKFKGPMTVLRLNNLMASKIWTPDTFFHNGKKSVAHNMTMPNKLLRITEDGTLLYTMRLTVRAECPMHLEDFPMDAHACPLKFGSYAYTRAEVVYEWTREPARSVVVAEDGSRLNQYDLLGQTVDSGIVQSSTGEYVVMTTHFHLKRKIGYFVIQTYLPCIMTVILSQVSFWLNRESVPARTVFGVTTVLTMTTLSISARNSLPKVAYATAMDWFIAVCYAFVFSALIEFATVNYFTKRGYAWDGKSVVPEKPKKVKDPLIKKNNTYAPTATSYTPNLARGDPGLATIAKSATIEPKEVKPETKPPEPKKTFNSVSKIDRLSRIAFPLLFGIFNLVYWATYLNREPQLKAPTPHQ
Gamma-aminobutyric acid receptor subunit alpha-1/alpha-2/beta-2/gamma-2, sequence (P47870 whole entry): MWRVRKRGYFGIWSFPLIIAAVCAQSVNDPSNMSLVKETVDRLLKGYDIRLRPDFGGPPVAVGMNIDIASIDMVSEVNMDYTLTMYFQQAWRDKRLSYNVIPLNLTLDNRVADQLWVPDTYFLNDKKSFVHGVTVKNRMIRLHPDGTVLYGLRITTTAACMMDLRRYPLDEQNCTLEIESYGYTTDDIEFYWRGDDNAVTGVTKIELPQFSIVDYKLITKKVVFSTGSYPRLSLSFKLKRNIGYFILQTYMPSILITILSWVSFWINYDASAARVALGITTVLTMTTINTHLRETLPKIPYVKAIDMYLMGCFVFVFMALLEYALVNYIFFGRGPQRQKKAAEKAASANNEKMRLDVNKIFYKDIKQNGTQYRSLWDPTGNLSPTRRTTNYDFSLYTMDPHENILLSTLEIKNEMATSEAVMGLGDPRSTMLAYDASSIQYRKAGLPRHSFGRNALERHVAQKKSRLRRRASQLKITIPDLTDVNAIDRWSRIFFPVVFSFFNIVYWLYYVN
Gamma-aminobutyric acid receptor subunit alpha-1/alpha-2/beta-2/gamma-2, sequence (P18507 whole entry): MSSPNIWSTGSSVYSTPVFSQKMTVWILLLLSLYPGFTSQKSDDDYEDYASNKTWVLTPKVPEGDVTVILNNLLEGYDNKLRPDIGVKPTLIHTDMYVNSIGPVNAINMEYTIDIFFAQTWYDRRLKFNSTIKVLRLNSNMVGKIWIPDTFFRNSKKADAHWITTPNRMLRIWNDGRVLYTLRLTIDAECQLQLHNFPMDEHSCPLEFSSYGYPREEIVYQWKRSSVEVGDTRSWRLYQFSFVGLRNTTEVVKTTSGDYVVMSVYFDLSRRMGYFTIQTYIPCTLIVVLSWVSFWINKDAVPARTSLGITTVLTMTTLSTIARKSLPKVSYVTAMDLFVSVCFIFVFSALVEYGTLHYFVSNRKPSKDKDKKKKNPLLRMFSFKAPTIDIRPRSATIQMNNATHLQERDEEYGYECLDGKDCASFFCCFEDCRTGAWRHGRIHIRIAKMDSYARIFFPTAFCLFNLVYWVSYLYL
Gamma-aminobutyric acid receptor subunit alpha-1/alpha-2/beta-2/gamma-2, sequence (P47869 whole entry): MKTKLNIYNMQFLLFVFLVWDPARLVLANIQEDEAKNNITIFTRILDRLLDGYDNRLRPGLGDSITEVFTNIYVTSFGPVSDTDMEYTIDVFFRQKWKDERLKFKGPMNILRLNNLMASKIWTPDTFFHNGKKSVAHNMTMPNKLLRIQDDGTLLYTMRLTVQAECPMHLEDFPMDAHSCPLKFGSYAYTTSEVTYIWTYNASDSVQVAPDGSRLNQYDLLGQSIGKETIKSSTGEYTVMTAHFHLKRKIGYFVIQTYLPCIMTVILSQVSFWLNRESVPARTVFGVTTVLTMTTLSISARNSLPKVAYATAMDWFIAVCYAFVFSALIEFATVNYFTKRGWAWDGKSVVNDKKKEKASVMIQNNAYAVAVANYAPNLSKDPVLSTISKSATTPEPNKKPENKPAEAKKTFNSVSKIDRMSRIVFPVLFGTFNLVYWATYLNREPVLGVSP

[4] = biological target: Voltage-dependent L-type calcium channel subunit alpha-1C (Rattus norvegicus, UniProt P22002); assay type: functional
Voltage-dependent L-type calcium channel subunit alpha-1C, sequence (P22002 whole entry): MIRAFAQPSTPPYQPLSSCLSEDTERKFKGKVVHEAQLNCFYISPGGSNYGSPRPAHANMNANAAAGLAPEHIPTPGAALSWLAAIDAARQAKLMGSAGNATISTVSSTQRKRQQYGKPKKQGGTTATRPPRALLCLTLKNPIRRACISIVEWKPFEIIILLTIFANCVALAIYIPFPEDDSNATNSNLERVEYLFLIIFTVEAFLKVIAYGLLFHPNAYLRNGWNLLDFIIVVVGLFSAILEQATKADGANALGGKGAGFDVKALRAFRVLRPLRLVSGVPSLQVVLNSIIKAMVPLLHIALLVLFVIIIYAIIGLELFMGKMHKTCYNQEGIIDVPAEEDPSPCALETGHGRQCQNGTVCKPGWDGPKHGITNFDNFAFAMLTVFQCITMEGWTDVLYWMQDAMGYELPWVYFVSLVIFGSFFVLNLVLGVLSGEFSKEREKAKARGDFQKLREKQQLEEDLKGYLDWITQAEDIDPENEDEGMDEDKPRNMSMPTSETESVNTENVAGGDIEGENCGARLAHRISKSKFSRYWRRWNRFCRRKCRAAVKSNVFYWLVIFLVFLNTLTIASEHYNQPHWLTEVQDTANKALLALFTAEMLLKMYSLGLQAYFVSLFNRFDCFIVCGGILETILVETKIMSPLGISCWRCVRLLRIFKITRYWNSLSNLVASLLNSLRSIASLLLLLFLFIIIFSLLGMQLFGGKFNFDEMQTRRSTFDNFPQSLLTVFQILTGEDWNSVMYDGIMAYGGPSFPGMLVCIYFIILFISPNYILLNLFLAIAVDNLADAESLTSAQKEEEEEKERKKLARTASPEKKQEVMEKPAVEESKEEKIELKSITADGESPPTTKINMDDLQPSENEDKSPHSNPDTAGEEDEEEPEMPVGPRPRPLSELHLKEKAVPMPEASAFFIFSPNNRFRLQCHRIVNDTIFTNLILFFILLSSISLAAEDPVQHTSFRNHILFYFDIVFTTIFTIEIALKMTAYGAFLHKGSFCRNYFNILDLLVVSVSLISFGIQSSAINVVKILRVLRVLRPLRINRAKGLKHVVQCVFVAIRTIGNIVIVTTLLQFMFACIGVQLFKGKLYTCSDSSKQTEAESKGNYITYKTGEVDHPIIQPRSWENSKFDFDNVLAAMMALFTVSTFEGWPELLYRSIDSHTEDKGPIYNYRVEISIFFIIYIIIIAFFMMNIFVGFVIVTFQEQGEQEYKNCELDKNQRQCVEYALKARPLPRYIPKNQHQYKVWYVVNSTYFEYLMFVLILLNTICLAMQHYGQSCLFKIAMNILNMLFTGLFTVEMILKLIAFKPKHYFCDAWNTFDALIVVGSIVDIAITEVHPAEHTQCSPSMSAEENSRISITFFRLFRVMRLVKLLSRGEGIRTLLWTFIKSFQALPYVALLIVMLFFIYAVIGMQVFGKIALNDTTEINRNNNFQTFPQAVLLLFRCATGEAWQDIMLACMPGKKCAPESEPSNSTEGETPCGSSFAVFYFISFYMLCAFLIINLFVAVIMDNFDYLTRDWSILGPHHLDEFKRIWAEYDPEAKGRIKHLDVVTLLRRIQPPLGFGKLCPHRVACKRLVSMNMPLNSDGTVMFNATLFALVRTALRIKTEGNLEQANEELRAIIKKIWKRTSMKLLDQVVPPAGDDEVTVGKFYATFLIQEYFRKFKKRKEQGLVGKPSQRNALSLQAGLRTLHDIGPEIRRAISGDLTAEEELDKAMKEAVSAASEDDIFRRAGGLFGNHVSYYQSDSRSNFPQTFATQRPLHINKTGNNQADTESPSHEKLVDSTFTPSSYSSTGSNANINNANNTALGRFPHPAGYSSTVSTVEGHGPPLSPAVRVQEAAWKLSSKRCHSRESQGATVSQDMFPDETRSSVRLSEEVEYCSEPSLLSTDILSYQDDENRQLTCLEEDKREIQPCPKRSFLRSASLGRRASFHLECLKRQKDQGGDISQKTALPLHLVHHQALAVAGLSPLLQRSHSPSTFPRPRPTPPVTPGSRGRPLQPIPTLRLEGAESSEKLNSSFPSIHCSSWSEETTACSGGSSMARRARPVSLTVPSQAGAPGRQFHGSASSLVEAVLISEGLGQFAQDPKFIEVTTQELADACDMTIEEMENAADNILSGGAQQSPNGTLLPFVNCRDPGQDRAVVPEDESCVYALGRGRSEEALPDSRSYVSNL

Cannabinoid receptor 1 = Cannabinoid receptor 1 (Homo sapiens, UniProt P21554)
Progesterone receptor = biological target: T1, Progesterone receptor (Homo sapiens, UniProt P06401)
T1 sequence (P06401 whole entry): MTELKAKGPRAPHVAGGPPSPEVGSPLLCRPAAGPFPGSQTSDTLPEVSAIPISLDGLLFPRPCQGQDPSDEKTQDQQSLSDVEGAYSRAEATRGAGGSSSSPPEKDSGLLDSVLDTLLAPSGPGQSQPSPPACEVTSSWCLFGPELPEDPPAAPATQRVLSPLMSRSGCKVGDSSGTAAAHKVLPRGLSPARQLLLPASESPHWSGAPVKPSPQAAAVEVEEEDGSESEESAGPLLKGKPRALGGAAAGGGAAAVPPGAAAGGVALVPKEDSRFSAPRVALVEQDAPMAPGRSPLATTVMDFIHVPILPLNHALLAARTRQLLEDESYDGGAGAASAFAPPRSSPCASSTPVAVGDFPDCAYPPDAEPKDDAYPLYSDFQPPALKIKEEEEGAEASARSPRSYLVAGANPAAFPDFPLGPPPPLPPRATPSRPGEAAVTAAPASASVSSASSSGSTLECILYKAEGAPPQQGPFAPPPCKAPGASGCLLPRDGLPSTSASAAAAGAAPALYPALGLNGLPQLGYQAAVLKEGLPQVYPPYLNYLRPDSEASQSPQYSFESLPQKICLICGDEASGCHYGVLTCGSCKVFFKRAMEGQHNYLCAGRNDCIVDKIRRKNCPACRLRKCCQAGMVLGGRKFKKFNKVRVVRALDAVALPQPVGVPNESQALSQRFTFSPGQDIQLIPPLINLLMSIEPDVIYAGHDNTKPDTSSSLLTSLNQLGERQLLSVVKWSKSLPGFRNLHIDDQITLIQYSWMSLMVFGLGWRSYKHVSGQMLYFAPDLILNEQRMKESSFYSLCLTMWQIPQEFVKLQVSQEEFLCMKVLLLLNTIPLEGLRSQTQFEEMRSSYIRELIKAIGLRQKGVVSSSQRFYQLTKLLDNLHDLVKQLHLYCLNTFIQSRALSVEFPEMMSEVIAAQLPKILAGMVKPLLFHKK

[5] = biological target: Voltage-dependent N-type calcium channel subunit alpha-1B (Rattus norvegicus, UniProt Q02294); assay type: functional
Glucagon receptor = Glucagon receptor (Homo sapiens, UniProt P47871)
Further: assay procedure not described here.

Muscarinic acetylcholine receptor M3, sequence (P20309 whole entry): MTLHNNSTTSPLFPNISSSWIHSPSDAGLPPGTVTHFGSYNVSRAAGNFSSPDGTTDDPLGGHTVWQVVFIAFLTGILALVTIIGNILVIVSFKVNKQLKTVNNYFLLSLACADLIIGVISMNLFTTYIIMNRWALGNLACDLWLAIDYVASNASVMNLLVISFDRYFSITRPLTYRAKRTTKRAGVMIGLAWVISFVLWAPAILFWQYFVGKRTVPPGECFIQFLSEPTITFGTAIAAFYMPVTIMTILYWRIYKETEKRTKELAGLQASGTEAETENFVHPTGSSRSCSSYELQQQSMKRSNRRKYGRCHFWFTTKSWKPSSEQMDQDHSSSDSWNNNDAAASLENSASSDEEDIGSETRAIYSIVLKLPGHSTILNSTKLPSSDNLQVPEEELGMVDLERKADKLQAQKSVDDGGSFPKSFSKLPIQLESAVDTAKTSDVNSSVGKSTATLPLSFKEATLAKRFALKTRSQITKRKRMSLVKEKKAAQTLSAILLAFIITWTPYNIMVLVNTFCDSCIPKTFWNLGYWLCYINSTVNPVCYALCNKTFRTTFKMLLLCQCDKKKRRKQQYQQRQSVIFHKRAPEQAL

| Compound | AC50 [1] | AC50 [2] | AC50 [3] | also measured |
| --- | --- | --- | --- | --- |
| CCOc1cc([C@@H](CS(C)(=O)=O)N2C(=O)c3cccc(NC(C)=O)c3C2=O)ccc1OC | > 30 µM | > 30 µM | – | – |
| CC(=O)NCCCCCC(=O)O [ACEXAMIC ACID] | – | – | > 30 µM | – |
| CC(=O)Nc1ccc(CC(=O)O)cc1 [ACTARIT] | > 30 µM | > 30 µM | – | AC50 [4]: > 30 µM |
| C=C(C)CNc1ccc(C(C)C(=O)O)cc1 (stereo not drawn) [ALMINOPROFEN] | – | – | > 30 µM | – |
| C[C@H]1CN(C[C@H](Cc2ccccc2)C(=O)NCC(=O)O)CC[C@@]1(C)c1cccc(O)c1 [ALVIMOPAN] | – | – | > 30 µM | – |
| CC(C(=O)O)c1ccc2oc(-c3ccc(Cl)cc3)nc2c1 (stereo not drawn) [BENOXAPROFEN] | – | – | – | AC50 [4]: > 30 µM |
| O=C(O)c1ccccc1 [BENZOIC ACID] | – | – | > 30 µM | – |
| CC1(C)S[C@@H]2[C@H](NC(=O)C(C(=O)O)c3ccccc3)C(=O)N2[C@H]1C(=O)O (stereo partly drawn) [CARBENICILLIN] | > 30 µM | > 30 µM | – | – |
| Cc1nnc(SCC2=C(C(=O)O)N3C(=O)[C@@H](NC(=O)Cn4cnnn4)[C@H]3SC2)s1 [CEFAZOLIN] | > 300 µM | > 30 µM | – | – |
| CC=CC1=C(C(=O)O)N2C(=O)[C@@H](NC(=O)[C@H](N)c3ccc(O)cc3)[C@H]2SC1 [CEFPROZIL] | > 30 µM | > 30 µM | – | AC50 (Cannabinoid receptor 1): > 30 µM; AC50 [4]: > 30 µM |
| CC(C)(O/N=C(\C(=O)N[C@@H]1C(=O)N2C(C(=O)[O-])=C(C[n+]3ccccc3)CS[C@H]12)c1csc(N)n1)C(=O)O [CEFTAZIDIME] | > 300 µM | > 30 µM | – | – |
| CC(C)NC(=N)NC(=N)Nc1ccc(Cl)c(Cl)c1 [CHLORPROGUANIL] | > 30 µM | 3.6 µM | – | – |
| Cc1cc(C2CCCCC2)n(O)c(=O)c1 [CICLOPIROX] | – | – | > 30 µM | – |
| C[N+](C)(C)CCOP(=O)(O)OP(=O)([O-])OC[C@H]1O[C@@H](n2ccc(N)nc2=O)[C@H](O)[C@@H]1O [CITICOLINE] | > 30 µM | > 30 µM | – | – |
| Clc1ccc(Cn2c(CN3CCCC3)nc3ccccc32)cc1 [CLEMIZOLE] | > 30 µM | 15 µM | – | – |
| Cc1nc(Nc2ncc(C(=O)Nc3c(C)cccc3Cl)s2)cc(N2CCN(CCO)CC2)n1 [DASATINIB] | > 30 µM | – | – | AC50 (Progesterone receptor): > 30 µM; AC50 [5]: > 10 µM; AC50 (Cannabinoid receptor 1): > 10 µM; AC50 (Glucagon receptor): > 10 µM; AC50 [4]: > 10 µM |
| C[C@H]1O[C@@H](O[C@H]2CC[C@@]3(C)[C@H](CC[C@@H]4[C@@H]3C[C@@H](O)[C@]3(C)[C@@H](C5=CC(=O)OC5)CC[C@]43O)C2)C[C@H](O)[C@@H]1O[C@H]1C[C@H](O)[C@H](O[C@H]2C[C@H](O)[C@H](O[C@@H]3O[C@H](CO)[C@@H](O)[C@H](O)[C@H]3O)[C@@H](C)O2)[C@@H](C)O1 [DESLANOSIDE] | – | – | > 30 µM | – |
| CC(C(=O)O)c1cccc(Oc2ccccc2)c1 (stereo not drawn) [FENOPROFEN] | – | – | > 30 µM | – |
| Cc1onc(-c2c(F)cccc2Cl)c1C(=O)N[C@@H]1C(=O)N2[C@@H]1SC(C)(C)[C@@H]2C(=O)O [FLOXACILLIN] | > 30 µM | > 30 µM | – | – |
| CC1(C)O[C@@H]2C[C@H]3[C@@H]4C[C@H](F)C5=CC(=O)C=C[C@]5(C)[C@@]4(F)[C@@H](O)C[C@]3(C)[C@]2(C(=O)CO)O1 [FLUOCINOLONE ACETONIDE] | – | – | > 30 µM | – |
| N=C(N)N/N=C/c1c(Cl)cccc1Cl [GUANABENZ] | – | – | > 30 µM | – |

| Compound | AC50 [1] | AC50 [2] | AC50 [3] | also measured |
| --- | --- | --- | --- | --- |
| CCCCCCCN(CC)CCCC(O)c1ccc(NS(C)(=O)=O)cc1 (stereo not drawn) [IBUTILIDE] | 21 µM | 25 µM | – | AC50 (Cannabinoid receptor 1): > 30 µM; AC50 [4]: > 30 µM |
| COc1cc(C(C)=O)ccc1OCCCN1CCC(c2noc3cc(F)ccc23)CC1 [ILOPERIDONE] | > 30 µM | – | – | – |
| CC(C)[C@@H]1CC[C@@H](C)C[C@H]1O [LEVOMENTHOL] | – | – | > 30 µM | – |
| C[N+]1(C)CCCC(OC(=O)C(O)(c2ccccc2)c2ccccc2)C1 (stereo not drawn) [MEPENZOLATE] | – | – | > 30 µM | – |
| CN(C)c1ccc(O)c2c1C[C@H]1C[C@H]3[C@H](N(C)C)C(O)=C(C(N)=O)C(=O)[C@@]3(O)C(O)=C1C2=O [MINOCYCLINE] | – | – | > 30 µM | – |
| CCNC(=O)/C=C(C)/C=C/C=C(C)/C=C/c1c(C)cc(OC)c(C)c1C [MOTRETINIDE] | – | – | > 30 µM | – |
| CNC(=C[N+](=O)[O-])NCCSCc1csc(CN(C)C)n1 [NIZATIDINE] | – | – | – | AC50 (Cannabinoid receptor 1): > 10 µM; AC50 [4]: > 10 µM |
| CN1Cc2c(N)cccc2C(c2ccccc2)C1 (stereo not drawn) [NOMIFENSINE] | > 30 µM | 15 µM | – | – |
| COc1ccc2[nH]c([S+]([O-])Cc3ncc(C)c(OC)c3C)nc2c1 (stereo not drawn) [OMEPRAZOLE] | – | – | > 30 µM | – |
| CCCc1cc(=O)[nH]c(=S)[nH]1 [PROPYLTHIOURACIL] | – | – | – | AC50 (Cannabinoid receptor 1): > 10 µM; AC50 [4]: > 10 µM |
| Cn1cc(C(=O)[C@@H]2CCc3nc[nH]c3C2)c2ccccc21 [RAMOSETRON] | > 30 µM | > 30 µM | – | AC50 [4]: > 30 µM |
| C[N+](C)(C)CCOC(=O)CCC(=O)OCC[N+](C)(C)C [SUXAMETHONIUM] | – | – | > 30 µM | – |
| S=P(N1CC1)(N1CC1)N1CC1 [THIOTEPA] | 9.3 µM | – | – | – |
| Cc1ccsc1C(=CCCN1CCC[C@@H](C(=O)O)C1)c1sccc1C [TIAGABINE] | – | – | > 30 µM | – |
| Cc1ccc(C(=O)c2ccc(CC(=O)O)n2C)cc1 [TOLMETIN] | – | – | > 30 µM | – |
| Cc1ccccc1C(=O)Nc1ccc(C(=O)N2CCCC(O)c3cc(Cl)ccc32)c(C)c1 (stereo not drawn) [TOLVAPTAN] | – | – | > 30 µM | – |
| C[C@]12C=CC(=O)C=C1CC[C@H]1[C@@H]3C[C@@H](O)[C@](O)(C(=O)CO)[C@@]3(C)C[C@H](O)[C@@]12F [TRIAMCINOLONE] | – | – | > 30 µM | – |
| CC(C)C[C@H](NC(=O)[C@@H](O)[C@H](N)Cc1ccccc1)C(=O)O [UBENIMEX] | – | – | – | AC50 [4]: > 30 µM |
| CCC1=C[C@@H]2CN(C1)Cc1c([nH]c3ccccc13)[C@@](C(=O)OC)(c1cc3c(cc1OC)N(C)[C@H]1[C@@](O)(C(=O)OC)[C@H](OC(C)=O)[C@]4(CC)C=CCN5CC[C@]31[C@@H]54)C2 [VINORELBINE] | – | – | > 30 µM | – |
| COc1cc(C(=O)NS(=O)(=O)c2ccccc2C)ccc1Cc1cn(C)c2ccc(NC(=O)OC3CCCC3)cc12 [ZAFIRLUKAST] | – | – | – | AC50 (Cannabinoid receptor 1): > 10 µM; AC50 [4]: > 10 µM |
